Data reported in US10968183B2, “Small molecule FIEL1 inhibitor in inflammatory and fibrotic lung injury” (UNIVERSITY OF PITTSBURGH—OF THE COMMONWEALTH SYSTEM OF …, priority 2015, dated 2021).
“Also recorded” adds a separate entry of the source.

Experiments:
FIEL1/PIAS4 interaction = target: T1, FIEL1/PIAS4 interaction (Homo sapiens, UniProt O15033); experiment: In vitro drug binding assay: PIAS4 pull-down on drug-bound FIEL1 beads
T1 construct: made in house; host or cells: 293T cells (FIEL1)
T1 sequence (O15033 1-789 isoform O15033-2): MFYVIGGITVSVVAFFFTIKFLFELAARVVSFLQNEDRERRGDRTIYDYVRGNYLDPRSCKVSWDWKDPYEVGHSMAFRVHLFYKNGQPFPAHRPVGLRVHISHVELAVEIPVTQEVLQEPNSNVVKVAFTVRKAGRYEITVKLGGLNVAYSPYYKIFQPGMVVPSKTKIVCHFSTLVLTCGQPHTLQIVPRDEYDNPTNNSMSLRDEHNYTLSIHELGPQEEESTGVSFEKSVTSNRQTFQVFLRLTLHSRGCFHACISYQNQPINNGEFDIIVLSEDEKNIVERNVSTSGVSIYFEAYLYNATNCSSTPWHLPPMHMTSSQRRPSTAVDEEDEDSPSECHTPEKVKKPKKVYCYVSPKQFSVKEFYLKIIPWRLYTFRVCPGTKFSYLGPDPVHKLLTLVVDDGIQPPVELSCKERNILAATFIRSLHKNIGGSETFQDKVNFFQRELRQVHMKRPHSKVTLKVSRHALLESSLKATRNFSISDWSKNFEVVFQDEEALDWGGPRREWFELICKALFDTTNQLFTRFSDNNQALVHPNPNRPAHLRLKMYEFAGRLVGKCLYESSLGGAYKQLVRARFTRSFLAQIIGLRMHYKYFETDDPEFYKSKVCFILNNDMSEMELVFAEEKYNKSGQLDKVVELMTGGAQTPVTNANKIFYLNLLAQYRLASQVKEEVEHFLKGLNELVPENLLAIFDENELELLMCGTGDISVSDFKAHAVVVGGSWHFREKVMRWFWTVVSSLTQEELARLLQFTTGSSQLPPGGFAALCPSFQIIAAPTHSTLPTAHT
Experimental: FIG. 7A. […] FIG. 7B. Structures of the BC-1480 backbone and lead compound BC-1485. FIG. 7C. FIEL1 protein was HIS-purified from FIEL1 expression in 293T cells using cobalt beads. Beads were then extensively washed prior to exposure to BC-1480 or BC-1485 at different concentrations (10^−4 to 100 μM). Purified PIAS4 protein was then incubated with drug-bound FIEL1 beads overnight. Beads were washed, and proteins were eluted and resolved on SDS-PAGE. The relative amounts of PIAS4 detected in the pull-downs was normalized to loading and quantified (n=2). FIG. 7D. MLE cells were exposed to BC-1480 or BC-1485 at various concentrations for 18 h. Cells were then collected and immunoblotted. FIGS. 7E-J. C57BL/6J mice were administered with bleomycin (0.05 U) for 7-21 days. Compounds BC-1480 and BC-1485 were given to mice through drinking water with an estimated dose of 5 mg/kg/d. Mice were euthanized, and lungs were lavaged with saline, harvested, and then homogenized. Lavage proteins, CXCL1, and total cell count were measured in FIGS. 7E-G. H. Survival studies of mice that were given bleomycin and compound treatments. Mice were carefully monitored over time; moribund, preterminal animals were immediately euthanized and recorded as deceased. Kaplan-Meier survival curves were generated using SPSS software (p<0.01 compared to Vehicle). Vehicle: n=24, BC-1480: n=13, BC-1485: n=12. FIG. 7I. Hydroxyproline contents were measured in lungs from 7, 14, and 21d after bleomycin challenge. FIG. 7J. Trichrome staining was performed on lung samples from E. Original magnification, ×10. *p<0.05 compared to Vehicle (t-test). Data are an average of two experiments (FIGS. 7E-J, 4-8 mice/group)
FIEL1 protein was HIS-purified from FIEL1 expression 293T cells using cobalt beads. Beads were then extensively washed prior to exposure to BC-1480 or BC-1485 at different concentrations (10^−4 to 100 μM). Purified recombinant PIAS4 protein was then incubated with drug-bound FIEL1 beads overnight. […] The relative amounts of PIAS4 detected in the pull-downs were normalized to loading and quantified.

JAK/STAT pathway = experiment: JAK/STAT protein immunoblotting in HCT8 cells exposed to DSS or IFNγ; type: cell-based
Experimental: HCT8 cells were pretreated with BC-1485 at different concentrations for 16 h before exposed to DSS (2%, 16 h) or IFNγ (10 ng/ml, 1 h). Cells were collected and assayed for protein immunoblotting.

[1] = system: DSS induced acute colonic inflammation in C57BL6 mice; experiment: Dextran sulfate sodium induced acute colonic inflammation in mice; type: in vivo; details: 2.5% DSS in water up to 7 days; drinking water 30 ug/ml, ~5 mg/kg/d
Experimental: C57BL6 mice were fed with water ad lib containing 2.5% dextran sulfate sodium (DSS) for up to 7 days. Mice were treated with either vehicle (control) or BC-1261 (administered into drinking water at 30 ug/ml, ˜5 mg/kg/d dosing). Colonic tissues were also analysed for TNFα, IL1 and IL6 shown in FIGS. 20E H&E staining was performed on colonic sections. The data in FIG. 20F represent n=6 mice/group, *P<0.05 versus DSS and **P<0.05 versus control. […] FIG. 20G provides pictures of the tissues at interest.
C57BL6 mice were fed with water ad lib containing 2.5% dextran sulfate sodium (DSS) for up to 7 days. Mice were treated with either vehicle (control) or BC-1261 (administered into drinking water at 30 ug/ml, ˜5 mg/kg/d dosing). Mice were then euthanized, the length of the colon and weight of the spleen were measured and graphed, shown in FIG. 20 B-D. Colonic tissues were also analysed for TNFα, IL1 and IL6 shown in FIG. 20E H&E staining was performed on colonic sections. The data in FIG. 20F represent n=6 mice/group, *P<0.05 versus DSS and **P<0.05 versus control.

[2] = 16 h pretreatment, then DSS 2% 16 h or IFNγ 10 ng/ml 1 h

Q: What does the source list for `CC(NC(=O)c1ccc(NS(=O)(=O)c2ccc3[nH]c(=O)[nH]c3c2)cc1)C(=O)N(C)C` (centres unmarked) [BC-1485]?
A: activity in disrupting the FIEL1/PIAS4 interaction compared to BC-1480 (FIEL1/PIAS4 interaction; 10^−4 to 100 μM compound on FIEL1 beads, FIG. 7C): > 100 fold; inhibition of FIEL1 and PIAS4 interaction (FIEL1/PIAS4 interaction; FIG. 7): inhibition of FIEL1 and PIAS4 interaction; JAK/STAT pathway signaling (JAK/STAT pathway): inhibits the signaling transduction; also recorded: inhibits JAK/STAT pathway; JAK1 protein level (JAK/STAT pathway; [2]): effectively decreases; JAK2 protein level (JAK/STAT pathway; [2]): effectively decreases; p-Stat1 protein level (JAK/STAT pathway; [2]): effectively decreases; p-Stat3 protein level (JAK/STAT pathway; [2]): effectively decreases; DSS induced acute colonic inflammation [1]: effectively reduces
